pIC50: −log10 of the molar value. Several values for one entry are separate records, joined by “and”; a condition that tells them apart may be missing. Equal entries are not always repeated. Where two headings read alike, the source gives them in different places.
Key:
P. aeruginosa = assay: In vitro antibacterial activity, microdilution broth (EUCAST); assay type: cell-based; settings: Pseudomonas aeruginosa
S. aureus = assay: as above; assay type: cell-based; settings: Staphylococcus aureus
MRSA = assay: as above; assay type: cell-based, Staphylococcus aureus methicillin resistant; settings: Staphylococcus aureus
K. pneumoniae = assay: as above; assay type: cell-based; settings: Klebsiella pneumoniae
S. epidermidis = assay: as above; assay type: cell-based; settings: Staphylococcus epidermidis
S. marcescens = assay: as above; assay type: cell-based; settings: Serratia marcescens
E. faecalis = assay: as above; assay type: cell-based; settings: Enterococcus faecalis
E. coli = assay: as above; assay type: cell-based; settings: Escherichia coli
Mtb H37Ra [1] = settings: cited from earlier work
C. krusei = assay: In vitro antifungal activity, microdilution broth (EUCAST); assay type: cell-based, Candida krusei; settings: Pichia kudriavzevii
C. parapsilosis = assay: as above; assay type: cell-based, Candida parapsilosis; settings: Lodderomyces parapsilosis
C. tropicalis = assay: as above; assay type: cell-based; settings: Candida tropicalis
L. corymbifera = assay: as above; assay type: cell-based; settings: Lichtheimia corymbifera
T. interdigitale = assay: as above; assay type: cell-based; settings: Trichophyton interdigitale
C. albicans = assay: as above; assay type: cell-based; settings: Candida albicans
A. fumigatus = assay: as above; assay type: cell-based; settings: Aspergillus fumigatus
A. flavus = assay: as above; assay type: cell-based; settings: Aspergillus flavus
HepG2 cell line = assay: In vitro cytotoxicity, CellTiter 96 (MTS); assay type: cell-based; settings: Homo sapiens, read-out: HepG2 IC50
M. smegmatis = assay: In vitro antimycobacterial activity, MABA; assay type: cell-based, Mycobacterium smegmatis; settings: Mycolicibacterium smegmatis; MABA; read-out: MIC M. smeg
[2] = test system: human epithelial kidney cancer A498 cell line; assay: In vitro cytotoxicity; assay type: cell-based; settings: A498, 24 h, read-out: Cytotoxicity IC50 A498
M. aurum = assay: In vitro antimycobacterial activity, MABA; assay type: cell-based, Mycobacterium aurum; settings: Mycolicibacterium aurum; MABA; read-out: MIC M. aurum
[3] = test system: human prostate cancer PC-3 cell line; assay: In vitro cytotoxicity; assay type: cell-based; settings: PC-3, 24 h, read-out: Cytotoxicity IC50 PC-3
Mtb H37Ra [4] = assay: In vitro antimycobacterial activity, Microplate Alamar Blue Assay (MABA); assay type: cell-based, Mycobacterium tuberculosis; settings: Mycobacterium tuberculosis, H37RA, read-out: MIC Mtb H37Ra
[5] = test system: human glioblastoma U-87 MG cell line; assay: In vitro cytotoxicity; assay type: cell-based; settings: 24 h, read-out: Cytotoxicity IC50 U-87 MG
[6] = test system: human ovarian cancer SK-OV-3 cell line; assay: In vitro cytotoxicity; assay type: cell-based; settings: SK-OV-3, 24 h, read-out: Cytotoxicity IC50 SK-OV-3
[7] = In vitro cytotoxicity, non-cancerous cells; assay type: cell-based; settings: human, HK-2 kidney cortex proximal tubule cells (non-cancerous); 24 hours incubation
[8] = 48 h, standards, read-out: MIC Lichtheimia corymbifera
[9] = 72 h, standards, read-out: MIC Trichophyton interdigitale
[10] = 48 h, standards, read-out: MIC Candida albicans
[11] = 48 h, standards, read-out: MIC Aspergillus fumigatus
[12] = 48 h, standards, read-out: MIC Aspergillus flavus

CNC(C)C1CCC(N)C(OC2C(N)CC(N)C(OC3OCC(C)(O)C(NC)C3O)C2O)O1 (centres unmarked) [gentamicin] showed an MIC (P. aeruginosa; 48 h, standards, read-out: MIC Pseudomonas aeruginosa) of 0.5 µg/mL, an MIC (S. aureus; 48 h, standards, read-out: MIC Staphylococcus aureus) of 1 µg/mL and an MIC (MRSA; 48 h, read-out: MIC Staphylococcus aureus methicillin resistant) of 16 to 32 µg/mL. For the same molecule, the MIC (K. pneumoniae; 48 h, standards, read-out: MIC Klebsiella pneumonia) was greater than 8 µg/mL, the MIC (S. epidermidis; 48 h, standards, read-out: MIC Staphylococcus epidermidis) was greater than 8 µg/mL and the MIC (S. marcescens; 48 h, standards, read-out: MIC Serratia marcescens) was 2 µg/mL. For the same molecule, the MIC (E. faecalis; 48 h, standards, read-out: MIC Enterococcus faecalis) was 8 µg/mL and the MIC (E. coli; 48 h, standards, read-out: MIC Escherichia coli) was 1 to 2 µg/mL.

In the case of CC(=O)Oc1ccc(COC(=O)c2cnc3ccccc3n2)cc1 [4-acetoxybenzyl quinoxaline-2-carboxylate], the “MIC for Mtb H37Ra” value (Mtb H37Ra [1]; Figure 2b) is given as 0.5 µg/mL.

Work on C[C@@H]1[C@H](O)[C@@H](C)/C=C/C=C/C=C/C=C/C=C/C=C/C=C/[C@H](O[C@@H]2O[C@H](C)[C@@H](O)[C@H](N)[C@@H]2O)C[C@@H]2O[C@](O)(C[C@@H](O)C[C@@H](O)[C@H](O)CC[C@@H](O)C[C@@H](O)CC(=O)O[C@H]1C)C[C@H](O)[C@H]2C(=O)O [amphotericin B] yielded an MIC (C. krusei; 48 h, standards) of 1 µg/mL, an MIC (C. parapsilosis; 48 h, standards) of 0.5 µg/mL and an MIC (C. tropicalis; 48 h, standards) of 1 µg/mL. For the same molecule, the MIC (L. corymbifera; [8]) was 0.5 µg/mL, the MIC (T. interdigitale; [9]) was 2 µg/mL and the MIC (C. albicans; [10]) was 0.5 µg/mL. For the same molecule, the MIC (A. fumigatus; [11]) was 1 µg/mL and the MIC (A. flavus; [12]) was 8 µg/mL.

With O=C(NCc1cccc2ccccc12)c1cnc2ccccc2n1 [Compound 29, N-(naphthalen-1-ylmethyl)quinoxaline-2-carboxamide] the MIC (C. krusei) was no less than 500 µM, the MIC (P. aeruginosa; read-out: MIC P. aeruginosa) was no less than 500 µM and the MIC (C. parapsilosis) was no less than 500 µM. It also gave an MIC (C. tropicalis) of no less than 500 µM, an MIC (L. corymbifera; read-out: MIC L. corymbifera) of no less than 500 µM and an MIC (T. interdigitale; read-out: MIC T. interdigitale) of no less than 500 µM. The pIC50 (HepG2 cell line; HepG2, cytotoxicity, 24 h incubation, CellTiter 96) was 4.43, the MIC (S. aureus; read-out: MIC S. aureus) was no less than 500 µM and the MIC (M. smegmatis) was ≥ 125 µg/mL and ≥ 399 µM. For the same molecule, the pIC50 [2] was less than 3.60, the MIC (C. albicans; read-out: MIC C. albicans) was no less than 500 µM and the MIC (A. fumigatus; read-out: MIC A. fumigatus) was no less than 500 µM. The MIC (A. flavus; read-out: MIC A. flavus) was no less than 500 µM, the MIC (M. aurum) was ≥ 125 µg/mL and ≥ 399 µM and the pIC50 [3] was 4.16. For the same molecule, the MIC (MRSA; read-out: MIC MRSA) was no less than 500 µM, the MIC (Mtb H37Ra [4]) was ≥ 250 µg/mL and ≥ 798 µM and the MIC (K. pneumoniae; read-out: MIC K. pneumoniae) was no less than 500 µM. For the same molecule, the MIC (S. epidermidis; read-out: MIC S. epidermidis) was no less than 500 µM, the MIC (S. marcescens; read-out: MIC S. marcescens) was no less than 500 µM and the pIC50 [5] was less than 3.60. It also gave an MIC (E. faecalis; read-out: MIC E. faecalis) of no less than 500 µM, a pIC50 [6] of 4.30 and an MIC (E. coli; read-out: MIC E. coli) of no less than 500 µM. The IC50 at 24 h [7] was greater than 250 µM.

For NC(=O)c1cnccn1 [PZA, pyrazinamide, reference compound], the “MIC for Mtb H37Ra” value (Mtb H37Ra [1]; acidic pH, Figure 2) is listed as less than 3.91 µg/mL, the “MIC for Mtb H37Ra” value (Mtb H37Ra [1]; neutral pH, Figure 2) is listed as greater than 500 µg/mL and the pIC50 (HepG2 cell line; HepG2, 24 h) is listed as less than 3.00. The MIC (M. smegmatis) was no less than 500 µg/mL, the MIC (M. aurum) was no less than 500 µg/mL and the MIC (Mtb H37Ra [4]) was ≥ 500 µg/mL and ≥ 4060 µM.

With C[C@@H](c1ncncc1F)[C@](O)(Cn1cncn1)c1ccc(F)cc1F [voriconazole] the MIC (C. krusei; 48 h, standards) was 0.5 µg/mL, the MIC (C. parapsilosis; 48 h, standards) was 8 µg/mL and the MIC (C. tropicalis; 48 h, standards) was greater than 16 µg/mL. The MIC (L. corymbifera; [8]) was greater than 16 µg/mL, the MIC (T. interdigitale; [9]) was greater than 16 µg/mL and the MIC (C. albicans; [10]) was greater than 16 µg/mL. It also gave an MIC (A. fumigatus; [11]) of 1 µg/mL and an MIC (A. flavus; [12]) greater than 16 µg/mL.
